Broadly, the IC50 is the midpoint of a concentration-inhibition curve. In general, IC90 refers to the concentration at which the effect reaches the 90% level. What is called half-life is the time needed for the level to fall by half in the phase considered.

Data set [1] has as its system SW620 colorectal cancer cell line. As to the kind of experiment: Cell viability (Cell Titer-Glo) in SW620 cells. The data set is classed as cell-based. The following applies: Homo sapiens, SW-620, replete media, 48 h incubation, 24 h recovery; for IC50: first value of IC50/IC90. On the procedure:
(§1) Biological activity was assessed in vitro in the following pancreatic cancer and colorectal cancer cell lines. • Pancreatic cancer cell lines • Panc-1: non-metastatic; mutations: KRAS, TP53 • AsPC-1: metastatic; mutations: KRAS, TP53, CDKN2A, MAP2K4 • Colorectal cancer cell lines • LoVo: metastatic; mutations: APC, KRAS, FBXW7, […] • SW620: metastatic; mutations: KRAS, TP53
(§2) Tumor cells were maintained at 37° C. in a humidified 5% CO2 atmosphere in T75 tissue culture flask containing 10 mL of RPMI 1640 (PANC-1), DMEM (AsPC-1), F12K (LoVo) or L15 (SW620), containing 2 mM L-glutamine, 10% fetal bovine serum (FBS) and 1% penicillin and streptomycin. The tumor cells were split at a ratio of 1:5 every 4-5 days by trypsinization and suspended in fresh medium in a new flask. Cells were harvested for experiments at 80-95% confluency.
(§3) PANC-1 cells in RPMI medium with 10% FBS (12,000 cells/well in 96 well plate) were incubated with increasing concentrations (12.5, 25, 50, 100, 150, and 200 µM), of test compound at 37° C. under 5% CO2 for 48 hours. Cells were undergone for another 24 hr recovery, in fresh RPMI media without serum. Cell viability was assessed using the Promega Cell Titer-Glo assay kit, following their protocol. Cell viability was measured based on the amount of ATP produced by the total number of cells present in each well using FLUOSTAR OPTIMA plate reader in the Luminescence mode. Production of ATP in Luminescence unit is directly proportional to the number of live cells. % live cells were calculated and SEM was also calculated as average of 3 replica wells.
(§4) Test compounds were screened for activity in AsPC-1 cells and the colon cancer cells using similar procedures but replacing RPMI with the respective media indicated above for the initial 48 hour incubation (i.e., DMEM (AsPC-1), F12K ( LoVo ), or L15 (SW620)), and RPMI was always used for the 24 hour recovery. Cells seeded for AsPc-1 (25,000 cells/well), LoVo (25,000 cells/well) and SW620 (25,000 cells/well) to achieve ~ 50% confluency after 24 hrs of seeding.
For orientation: ATP-based viability assays read luminescence as a measure of living cells.

For data set [2], the system named is LoVo colorectal cancer cell line. Kind of data set: Cell viability (Cell Titer-Glo) in LoVo cells. The data set is classed as cell-based. The following applies: Homo sapiens, replete media, 48 h incubation, 24 h recovery; for IC50: first value of IC50/IC90; for IC90: second value of IC50/IC90. As to the method:
as §1, §2, §3, §4

The subject of data set [3] is Panc-1 pancreatic cancer cell line. As to the kind of experiment: Cell viability (Cell Titer-Glo) in Panc-1 cells. The data set is classed as cell-based. The following applies: Homo sapiens, replete media, 48 h incubation, 24 h recovery; for IC50: first value of IC50/IC90; for IC90: second value of IC50/IC90. On the procedure:
as §1, §2, §3

Data set [4] has as its system AsPC-1 pancreatic cancer cell line. As to the kind of experiment: Cell viability (Cell Titer-Glo) in AsPC-1 cells. The data set is classed as cell-based. The following applies: Homo sapiens, ASPC1, replete media, 48 h incubation, 24 h recovery; for IC50: first value of IC50/IC90. As to the method: as §1, §2, §3, §4
For data set [5] the following is noted: after IV dosing; Pardee et al. 2014; cited from earlier work.

On to `[2H]C(O)(CCC(CCSCc1ccccc1)SCc1ccccc1)CC(=O)O` (centres unmarked) [Compound I-77], for which the IC50 is greater than 300 µM in data set [1], greater than 300 µM in data set [2], greater than 300 µM in data set [3] and 314 µM in data set [4].

With `[2H]C(O)(CCC(CCSCc1ccccc1)SCc1ccccc1)CC(=O)N1CCNCC1` (centres unmarked) [Compound I-79], in data set [2], the IC50 is 181 µM and the 90% effect level (IC90) was put at 254 µM. In data set [3], this compound returned an IC50 of 44 µM and an IC90 of 282 µM.

`[2H]C([2H])(CCC(CCSCc1ccccc1)SCc1ccccc1)CC(=O)O` (centres unmarked) [Compound I-10, 6,8-bis(benzylsulfanyl)-3,3-dideuterio-octanoic acid]: the IC50 in data set [2] and in data set [3] was greater than 300 µM each time.

`[2H]C([2H])(CC(=O)O)C([2H])([2H])CC(CCSCc1ccccc1)SCc1ccccc1` (centres unmarked) [Compound I-24, 6,8-bis(benzylsulfanyl)-3,3,4,4-tetradeuterio-octanoic acid]: the IC50 in data set [2] and in data set [3] was greater than 300 µM each time.

As to `O=C(O)CCCCC(CCSCc1ccccc1)SCc1ccccc1` (centres unmarked) [CPI-613, 6,8-bis(benzylsulfanyl)octanoic acid], the half-life in data set [5] was 1 to 2 h.

As to `[2H]C(O)(CCC(CCSCc1ccccc1)SCc1ccccc1)CC(N)=O` (centres unmarked) [Compound I-78], the results for the concentration for half-maximal inhibition (IC50) in data set [1], in data set [2] and in data set [4] were 28 µM, 26 µM and 28 µM, respectively. Also, the IC90 came to 37 µM in data set [1] (second value of IC50/IC90), 39 µM in data set [2], 73 µM in data set [3] and 65 µM in data set [4] (second value of IC50/IC90).
